We go through one compound from patent US9435809B2, “Method of treating and reducing the risk of acute myelogenous leukemia” (Memorial Sloan-Kettering Cancer Center, priority 2011, dated 2016).

For assay [1], the system named is Kasumi-1 cells. As to the kind of experiment: Growth of Kasumi-1 cells. To be noted: Lys-CoA-Tat and DDDD-Tat 50 μM; C646 concentration not stated. Format: cell-based, human. The procedure: (§1) Leukemia cells were obtained from two AML patients with t(8;21) by Ficoll-hypaque separation. Informed consent was obtained from the patients, according to institutional (IRB) guidelines. The cell viabilities of the primary leukemia cells, Kasumi-1 cells, HL60 cells and human CD34^+ cells were assessed by triplicate counting of trypan blue dye-excluding cells under light microscopy. The cell morphology was evaluated by Wright's staining of cells prepared by cytospin centrifugation. Blast cells were isolated from the bone marrow and spleen of the mice with AE9a or MLL-AF9 driven leukemia, and treated for 12 hours with Lys-CoA-Tat or DDDD-Tat (at 50 μM), or C646 vs. C37 (at 20 μM). Female C57Bl/6 mice were sublethally irradiated with 475 cGy, and then injected with 3×10^6 treated blast cells via tail vein.
(§2) Cells were treated with p300 inhibitors at different concentrations in a 96-well plate. After 72 hours, 0.1 mg MTT was added to each well. The samples were incubated at 37° C. for 4 hours and the absorbance was measured at 570 nm by spectrophotometry.

Assay [2] relates to MO-91 cells. As to the kind of experiment: MTT growth assay of AML cell lines: MO-91. To be noted: at 5 μM; MTT assay after 72 hours. The class given is cell-based. The procedure:
as §2

The test system of assay [3] is U937 cells. The assay can be described thus: MTT growth assay of AML cell lines: U937. Format: cell-based. Conditions: at 5 μM; MTT assay after 72 hours. The procedure:
as §2

Assay [4] has as its system NB4 cells. As to the kind of experiment: MTT growth assay of AML cell lines: NB4. Format: cell-based. To be noted: at 5 μM; MTT assay after 72 hours. The procedure: as §2
(In general: Tetrazolium assays rely on reduction of a dye to a coloured formazan, in cell work by metabolically active cells.)

Assay [5] relates to HEL cells. As to the kind of experiment: MTT growth assay of AML cell lines: HEL. Format: cell-based. Conditions: at 5 μM; MTT assay after 72 hours. The procedure: as §2
Assay [6] concerns THP-1 cells. The assay can be described thus: MTT growth assay of AML cell lines: THP-1. The class given is cell-based. To be noted: at 5 μM; MTT assay after 72 hours. The procedure: as §2
Assay [7] concerns Mono-Mac-1 cells. The assay can be described thus: MTT growth assay of AML cell lines: Mono-Mac-1. Format: cell-based. To be noted: at 5 μM; MTT assay after 72 hours. The procedure: as §2
Assay [8] has as its system HL60 cells. The assay can be described thus: MTT growth assay of AML cell lines: HL60. The class given is cell-based. Conditions: at 5 μM; MTT assay after 72 hours. The procedure: as §2
The subject of assay [9] is acetylated A-EK43 (AML1-ETO). The assay can be described thus: A-EK43 acetylation in Kasumi-1 cells (IP / Western blot). Conditions: Lys-CoA-Tat 50 μM, C646 10 or 20 μM for 24 hours. The class given is cell-based, human. The source says:
(§3) Anti-p300 (Millipore or Santa Cruz), anti-Flag (Sigma), anti-HA (Santa Cruz), anti-ETO (generated in the Roeder lab or Santa Cruz), anti-AML1 (Zhao, X. et al, Genes Dev 22, 640, 2008), anti-acetylated lysine (Stressgen), anti-acetylated Histone H3 (Millipore), anti-Tubulin (Sigma), anti-TAFII250 (generated in the Roeder lab) and anti-TAF7 (generated in the Roeder lab) antibodies were used. Two anti-acetylated AML1-ETO polyclonal antibodies were generated by immunizing rabbits with the synthetic peptides (TALSPGK [acetylated] MSEA SEQ ID NO: 10 or LAGK [acetylated] LRSGDRS SEQ ID NO: 11) conjugated to KLH. The polyclonal antiserum was collected and purified using a peptide affinity column. The affinity of the antibodies against acetyl-lysine AML1-ETO was measured by dot blot assays. For the dot blot assays, 5 pmol of peptide (measured by Ellman's reagent) was spotted onto a nitrocellulose membrane. The control peptides were as follows: AML1-ETOK24 peptide (TALSPGKMSEA) (SEQ ID NO: 10) and AML1-ETOK43 peptide (LAGK LRSGDRS) (SEQ ID NO: 11).
(§4) The Flag-AE, Flag-AE-ΔNHR1 (aa245-436), Flag-AE-ΔNHR2, Flag-ETO, Flag-ETO-ΔNHR1 and Flag-ETO-ΔNHR2 cDNAs were cotransfected into 80% confluent 293T cells using the FuGene 6 reagent. After 36 hours the cells were lysed in RIPA buffer with 1 mM DTT and DNAse I 1 μg/mL and a proteinase inhibitor cocktail (Roche), and incubated on ice for 30 minutes. […]
In general terms: Immunoblotting shows a protein as a band on a membrane.

The subject of assay [10] is histone H3. As to the kind of experiment: Histone H3 acetylation in Kasumi-1 cells (Western blot). Format: cell-based, human. Conditions: Lys-CoA-Tat 50 μM, C646 10 or 20 μM for 24 hours.
Source text: as §3, §4

In assay [11] the test system is Id1, p21 and Egr1 mRNA. The assay can be described thus: qPCR of AML1-ETO activated target genes in Kasumi-1 cells. Format: cell-based, human. To be noted: 24 hours, Lys-CoA-Tat 50 μM, C646 20 μM. The procedure:
The RNA extraction and cDNA generation procedures were described above. The reverse transcription reaction was performed for 10 min at 25° C., 50 min at 50° C., 5 min at 85° C. and 20 min at 37° C. Real-time quantitative PCR was performed using a TaqMan 7500 sequence detector system (Applied Biosystems). The thermal cycle conditions were:
50° C. for 2 min, 95° C. for 10 min to activate Amplitaq Gold DNA polymerase, denaturation at 95° C. for 15 seconds and anneal/extension at 60° C. for 1 min (45 cycles). Quantitative PCR for HPRT was performed to normalize for cDNA loading. The relative quantification of gene expression was calculated using the method […], as described by the manufacturer.

Assay [12] deals with AE9a expressing mouse leukemia cells. The assay can be described thus: AE9a mouse AML model, leukemia cells treated ex vivo and injected. Format: in vivo. The procedure:
as §1
(§5) Assays were set up in triplicates and the results expressed as the mean±SD. Statistical analyses were performed using Student's t-test. Survival functions were estimated using the Kaplan-Meier method and compared by the log-rank test.

Assay [13] deals with MLL-AF9 expressing mouse leukemia cells. As to the kind of experiment: MLL-AF9 mouse leukemia model, leukemia cells treated ex vivo and injected. Format: in vivo. Conditions: cells treated ex vivo 12 hours with 50 μM Lys-CoA-Tat/DDDD-Tat or 20 μM C646/C37; sublethally irradiated recipients. The procedure: as §1, §5
[14] abbreviates: AE9a cells treated ex vivo 12 hours, 50 μM Lys-CoA-Tat vs DDDD-Tat or 20 μM C646 vs C37.

“Also recorded” adds a separate entry of the source.

In the case of `CC1=NN(c2ccc(C(=O)O)cc2)C(=O)/C1=C\c1ccc(-c2cc(C)c(C)cc2[N+](=O)[O-])o1` [C646], in [1], the “growth of Kasumi-1 cells” value is “as did C646”. For the same compound, in assay [2], the “growth of MO-91 cells” value is on record as “inhibited the growth”. In addition, in [3], the “growth of U937 cells” value is “inhibited the growth”. Moreover, the “growth of NB4 cells” value in [4] is listed as “inhibited the growth”. Moreover, the “growth of HEL cells” value in assay [5] is “inhibited the growth”. Moreover, in assay [6], the “growth of THP-1 cells” value is recorded as “minimal effect”. In addition, the “growth of Mono-Mac-1 cells” value in assay [7] is recorded as “minimal effect”. Also, the “growth of HL60 cells” value in [8] is reported as “minimal effect”. For the same compound, the “level of acetylated A-EK43” value in assay [9] is recorded as “decreased the level; also recorded: decreased acetylation”. In addition, in assay [10], the “level of acetylated histone H3” value is listed as “decreased the level”. In addition, the “expression of AML1-ETO activated target genes (Id1, p21 and Egr1 mRNA)” value in [11] is given as “decreased the level; also recorded: downregulated expression”. Also, in [12] (setting [14]), the “Percent of GFP+ C-Kit+ cells in peripheral blood” value is on record as “reduced the number; also recorded: significantly less”, the WBC counts entry was “lower white blood counts; also recorded: significantly lower”, the “platelet count (PLT)” value is reported as “less thrombocytopenia; also recorded: higher” and the “red blood cell count (RBC)” value is “less anemia; also recorded: higher”. In addition, the “Median survival of AE9a mice” value in [12] (cells treated ex vivo 12 hours with 50 μM Lys-CoA-Tat/DDDD-Tat or 20 μM C646/C37, sublethally irradiated recipients) was 43 days. In addition, the “Median survival of MLL-AF9 mice” value in assay [13] is on record as 28 days.
